Data: patent US20150152395A1, “CHIMERIC LUCIFERASES” (Connecticut College, priority 2012, published 2015)

What was measured:
[1] = test system: PpyLit, chimeric luciferase of PpyWT residues 1-439 and LitWT residues 440-550, SEQ ID NO: 8; assay: Relative rate of adenylate formation (L-AMP formation from dehydroluciferin), fluorescence-based; assay type: biochemical, Photinus pyralis / Luciola italica; conditions: faster than PpyWT, pH 7.4
Procedure: Using an excitation wavelength of 350 nm, the luciferase-catalyzed formation of L-AMP from dehydroluciferin (L), initiated by the addition of Mg-ATP, was assessed by following the decrease in the intensity of the 440 nm fluorescence of the initial enzyme-L complex. The change in fluorescence was used to estimate the rates of L-AMP formation catalyzed by the luciferases. Assays (0.4 mL) in 50 mM Tris buffer, pH 7.4 contained 2.8 μM enzyme and 0.55 μM L. The initial fluorescence at 440 nm was recorded and then the decrease was monitored following the rapid injection of 50 μL solutions of varying concentrations of Mg-ATP in the same buffer. The rates of decrease (slopes) were calculated and used to determine the initial velocities for each Mg-ATP concentration. The data were fitted using a nonlinear least squares method of the Enzyme Kinetics Pro software (SynTex), which fits data from the Michalis-Menten equation to a rectangular hyperbola, and the Vmax values were obtained. The corresponding kcat values were obtained by dividing the Vmax values (μmol/s) by the final amounts (μmol) of each luciferase in the assay mixtures.

[2] = target: Photinus pyralis luciferase, recombinant wild type (PpyWT), SEQ ID NO: 4, with N-terminal peptide GPLGS (Photinus pyralis, UniProt P08659); assay: Steady-state kinetic constants, bioluminescence activity; assay type: biochemical; conditions: pH 7.8; Vmax from LH2 Km measurement
Sequence of Photinus pyralis luciferase, recombinant wild type (PpyWT), SEQ ID NO: 4, with N-terminal peptide GPLGS (P08659 whole entry): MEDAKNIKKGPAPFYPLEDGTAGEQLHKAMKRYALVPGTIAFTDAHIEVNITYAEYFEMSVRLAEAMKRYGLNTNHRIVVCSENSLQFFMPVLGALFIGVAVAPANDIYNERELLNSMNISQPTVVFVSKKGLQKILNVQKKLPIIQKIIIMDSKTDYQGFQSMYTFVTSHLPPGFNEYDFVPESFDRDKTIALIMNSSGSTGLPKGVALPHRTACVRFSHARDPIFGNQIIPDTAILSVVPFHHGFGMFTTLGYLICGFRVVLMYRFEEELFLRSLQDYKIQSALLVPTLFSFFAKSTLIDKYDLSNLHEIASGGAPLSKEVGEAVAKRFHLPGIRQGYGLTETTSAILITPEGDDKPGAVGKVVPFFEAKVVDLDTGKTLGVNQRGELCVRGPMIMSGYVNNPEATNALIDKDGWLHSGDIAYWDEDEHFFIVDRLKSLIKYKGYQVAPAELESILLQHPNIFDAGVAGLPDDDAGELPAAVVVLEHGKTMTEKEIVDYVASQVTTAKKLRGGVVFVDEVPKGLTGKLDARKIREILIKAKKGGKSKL

[3] = test system: PpyLit (chimeric luciferase, SEQ ID NO: 8) variant S284T/F465R; assay: as above; assay type: biochemical, Photinus pyralis / Luciola italica; conditions: pH 7.8
Procedure: (§1) Reactions were initiated by injection of solutions of the substrate being maintained at saturating concentration. Kinetic constants were determined using a nonlinear least squares method of the Enzyme Kinetics Pro software (SynTex), which fits data from the Michalis-Menten equation to a rectangular hyperbola. The corresponding kcat values were obtained by dividing the Vmax values by the amount (μmol) of each luciferase in the assay mixtures.

[4] = test system: PpyLit, chimeric luciferase of PpyWT residues 1-439 and LitWT residues 440-550, SEQ ID NO: 8; assay: as above; assay type: biochemical, Photinus pyralis / Luciola italica; conditions: pH 7.8
Procedure: as §1

[5] = test system: Ppy RE-TSLit, chimeric luciferase of Ppy RE-TS N-domain and LitWT C-domain; assay: as above; assay type: biochemical, Photinus pyralis / Luciola italica; conditions: pH 7.8
Procedure: as §1

[6] = test system: PpyLit (chimeric luciferase, SEQ ID NO: 8) variant S284T; assay: as above; assay type: biochemical, Photinus pyralis / Luciola italica; conditions: pH 7.8
Procedure: as §1

[7] = test system: PpyLit (chimeric luciferase, SEQ ID NO: 8) variant I351V/E354K; assay: as above; assay type: biochemical, Photinus pyralis / Luciola italica; conditions: pH 7.8
Procedure: as §1

[8] = test system: Ppy GR-TSLit, chimeric luciferase of Ppy GR-TS N-domain and LitWT C-domain; assay: as above; assay type: biochemical, Photinus pyralis / Luciola italica; conditions: pH 7.8
Procedure: as §1

[9] = test system: PpyLit (chimeric luciferase, SEQ ID NO: 8) variant F465R; assay: as above; assay type: biochemical, Photinus pyralis / Luciola italica; conditions: pH 7.8
Procedure: as §1

[10] = test system: PpyLit (chimeric luciferase, SEQ ID NO: 8) variant S284T/I351V/E354K; assay: as above; assay type: biochemical, Photinus pyralis / Luciola italica; conditions: pH 7.8
Procedure: as §1

[11] = test system: PpyLit (chimeric luciferase, SEQ ID NO: 8) variant I232A/I351V/E354K; assay: as above; assay type: biochemical, Photinus pyralis / Luciola italica; conditions: pH 7.8
Procedure: as §1

[12] = test system: PpyLit (chimeric luciferase, SEQ ID NO: 8) variant I351V/E354K/F465R; assay: as above; assay type: biochemical, Photinus pyralis / Luciola italica; conditions: pH 7.8
Procedure: as §1

[13] = test system: PpyLit (chimeric luciferase, SEQ ID NO: 8) variant I232A/E354K; assay: as above; assay type: biochemical, Photinus pyralis / Luciola italica; conditions: pH 7.8
Procedure: as §1

[14] = test system: LitPpy, chimeric luciferase of LitWT residues 1-439 and PpyWT residues 440-550; assay: as above; assay type: biochemical, Luciola italica / Photinus pyralis; conditions: pH 7.8
Procedure: as §1

[15] = test system: PpyLit, chimeric luciferase of PpyWT residues 1-439 and LitWT residues 440-550, SEQ ID NO: 8; assay: Rate of oxidative half-reaction with synthetic LH2-AMP; assay type: biochemical, Photinus pyralis / Luciola italica; conditions: faster than PpyWT; LH2-AMP as substrate, pH 7.8
Procedure: The estimated rates of the oxidative half-reactions were based on bioluminescence activity assays using synthetic LH2-AMP as the substrate. Assays (0.510 mL) in 50 mM glycylglycine buffer, pH 7.8, contained 0.1 mL aliquots of LH2-AMP solution (final concentration 1.5-35 μM) in 10 mM sodium acetate, pH 4.5. Immediately, light reactions were initiated by injections of 10 μL of luciferase enzymes (0.4-1 μg in CBA). Kinetic constants were determined using a nonlinear least squares method of the Enzyme Kinetics Pro software (SynTex), which fits data from the Michalis-Menten equation to a rectangular hyperbola. The corresponding kcat values were obtained by dividing the Vmax values by the final amounts (μmol) of each luciferase in the assay mixtures.

[16] = substrate: Nc1ncnc2c1ncn2[C@@H]1O[C@H](COP(=O)(O)OP(=O)(O)OP(=O)(O)O)[C@@H](O)[C@H]1O; assay: purified protein, by the assay type; conditions: other: pH 7.8, LH2 saturating, 37.0 °C
[17] = substrate: O=C(O)[C@H]1CSC(c2nc3ccc(O)cc3s2)=N1; assay: purified protein, by the assay type; conditions: other: pH 7.8, Mg-ATP saturating, 37.0 °C
[18] = read-out: Km LH2, Mg-ATP saturating

With `O=C(O)c1csc(-c2nc3ccc(O)cc3s2)n1` [L, dehydroluciferin] the “rate of adenylate formation half reaction” value [1] was ~1.35 fold.

With `O=C(O)[C@H]1CSC(c2nc3ccc(O)cc3s2)=N1` [LH2, D-firefly luciferin] the kcat [2] was 0.18 ± 0.01 s⁻¹, the kcat ([3]; Vmax from LH2 Km measurement) was 0.10 ± 0.01 s⁻¹ and the Km [3, 18] was 22 ± 3 µM. The kcat ([4]; Vmax from LH2 Km measurement) was 0.32 ± 0.02 s⁻¹, the Km [4, 18] was 25 ± 2 µM and the kcat ([5]; Vmax from LH2 Km measurement) was 0.09 ± 0.003 s⁻¹. For the same molecule, the Km [5, 18] was 51 ± 3 µM, the kcat ([6]; Vmax from LH2 Km measurement) was 0.10 ± 0.01 s⁻¹ and the Km [6, 18] was 15 ± 2 µM. The kcat ([7]; Vmax from LH2 Km measurement) was 0.30 ± 0.02 s⁻¹, the Km [7, 18] was 52 ± 5 µM and the kcat ([8]; Vmax from LH2 Km measurement) was 0.079 ± 0.001 s⁻¹. It also gave a Km [8, 18] of 123 ± 9 µM, a kcat ([9]; Vmax from LH2 Km measurement) of 0.34 ± 0.02 s⁻¹ and a Km [9, 18] of 31 ± 3 µM. For the same molecule, the kcat ([10]; Vmax from LH2 Km measurement) was 0.13 ± 0.01 s⁻¹, the Km [10, 18] was 49 ± 5 µM and the kcat ([11]; Vmax from LH2 Km measurement) was 0.24 ± 0.01 s⁻¹. It also gave a Km [11, 18] of 51 ± 5 µM, a kcat ([12]; Vmax from LH2 Km measurement) of 0.29 ± 0.01 s⁻¹ and a Km [12, 18] of 83 ± 3 µM. The kcat ([13]; Vmax from LH2 Km measurement) was 0.25 ± 0.01 s⁻¹, the Km [13, 18] was 24 ± 3 µM and the kcat ([14]; Vmax from LH2 Km measurement) was 0.033 ± 0.001 s⁻¹. It also gave a Km [14, 18] of 54 ± 5 µM.

In the case of `Nc1ncnc2c1ncn2[C@@H]1O[C@H](COP(=O)(O)OC(=O)[C@H]2CSC(c3nc4ccc(O)cc4s3)=N2)[C@@H](O)[C@H]1O` [LH2-AMP], the “rate of oxidative half reaction” value [15] is reported as ~1.35 fold.

B1: LitWT, recombinant Luciola italica luciferase containing Lys547Gly/Met548Gly, SEQ ID NO: 6, with N-terminal peptide GPLGS (Luciola italica; K547G/M548G) (protein)
chain: METEREENVVYGPLPFYPIEEGSAGIQLHKYMQQYAKLGAIAFSNALTGVDISYQQYFDITCRLAEAMKNYGMKPEGHIALCSENCEEFFIPVLAGLYIGVTVAPTNEIYTLRELNHSLGIAQPTIVFSSRKGLPKVLEVQKTVTCIKTIVILDSKVNFGGYDCVETFIKKHVELGFPATSFVPIDVKDRKHHIALLMNSSGSTGLPKGVEITHEGTVTRFSHAKDPIYGNQVSPGTAILTVVPFHHGFGMFTTLGYFACGYRIVMLTKFDEELFLRTLQDYKCTSVILVPTLFAILNRSELLDKFDLSNLTEIASGGAPLAKEIGEAVARRFNLPGVRQGYGLTETTSAFIITPEGDDKPGASGKVVPLFKVKIIDLDTKKTLGVNRRGEICVKGPSLMLGYTNNPEATRETIDEEGWLHTGDIGYYDEDEHFFIVDRLKSLIKYKGYQVPPAELESVLLQHPNIFDAGVAGVPDSEAGELPGAVVVMEKGKTMTEKEIVDYVNSQVVNHKRLRGGVRFVDEVPKGLTGKIDAKVIREILKKPQAGG
With B1 the Km [16] was 180 ± 14 µM, the Km [17] was 90 ± 9 µM and the kcat [17] was 0.14 ± 0.01 s⁻¹.
